± gives the uncertainty stated by the source.
Assay: xn = mol fraction of the nth substance listed
Details: 101 kPa

CC[N+](CC)=C(N(C)C)N(C)C.O=S(=O)([N-]S(=O)(=O)C(F)(F)F)C(F)(F)F + CCO
Details | electrical conductivity, 293.2 K [S/m] | viscosity, 293.15 K [mPa·s] | viscosity, 298.15 K [mPa·s] | viscosity, 303.15 K [mPa·s] | viscosity, 308.15 K [mPa·s] | viscosity, 313.15 K [mPa·s] | viscosity, 318.15 K [mPa·s] | viscosity, 323.15 K [mPa·s]
x1 = 0.0004697 | 0.0209 ± 0.0005 | 1.188 ± 0.072 | 1.083 ± 0.065 | 0.985 ± 0.06 | 0.895 ± 0.054 | 0.825 ± 0.05 | 0.758 ± 0.046 | 0.701 ± 0.042
x1 = 0.0008976 | 0.0341 ± 0.0007 | 1.203 ± 0.073 | 1.096 ± 0.066 | 0.996 ± 0.06 | 0.905 ± 0.055 | 0.834 ± 0.05 | 0.766 ± 0.046 | 0.708 ± 0.043
x1 = 0.002294 | 0.0657 ± 0.0014 | 1.228 ± 0.074 | 1.119 ± 0.068 | 1.016 ± 0.061 | 0.922 ± 0.056 | 0.849 ± 0.051 | 0.78 ± 0.047 | 0.72 ± 0.044
x1 = 0.004714 | 0.109 ± 0.002 | 1.266 ± 0.077 | 1.146 ± 0.069 | 1.04 ± 0.063 | 0.945 ± 0.057 | 0.871 ± 0.053 | 0.8 ± 0.048 | 0.738 ± 0.045
x1 = 0.009053 | 0.167 ± 0.004 | 1.318 ± 0.08 | 1.197 ± 0.072 | 1.088 ± 0.066 | 0.987 ± 0.06 | 0.909 ± 0.055 | 0.835 ± 0.05 | 0.772 ± 0.047
x1 = 0.018 | 0.278 ± 0.006 | 1.438 ± 0.087 | 1.304 ± 0.079 | 1.185 ± 0.072 | 1.075 ± 0.065 | 0.989 ± 0.06 | 0.909 ± 0.055 | 0.839 ± 0.051
x1 = 0.02647 | 0.393 ± 0.009 | 1.561 ± 0.094 | 1.414 ± 0.086 | 1.282 ± 0.078 | 1.162 ± 0.07 | 1.069 ± 0.065 | 0.981 ± 0.059 | 0.904 ± 0.055
x1 = 0.03521 | 0.477 ± 0.01 | 1.7 ± 0.1 | 1.537 ± 0.093 | 1.394 ± 0.084 | 1.263 ± 0.077 | 1.156 ± 0.07 | 1.061 ± 0.064 | 0.98 ± 0.059
x1 = 0.04396 | 0.552 ± 0.012 | 1.85 ± 0.11 | 1.66 ± 0.1 | 1.502 ± 0.091 | 1.363 ± 0.083 | 1.253 ± 0.076 | 1.149 ± 0.07 | 1.06 ± 0.064
x1 = 0.05173 | 0.591 ± 0.012 | 1.99 ± 0.12 | 1.79 ± 0.11 | 1.612 ± 0.098 | 1.459 ± 0.089 | 1.327 ± 0.08 | 1.218 ± 0.074 | 1.121 ± 0.068
x1 = 0.06055 | 0.661 ± 0.014 | 2.15 ± 0.13 | 1.92 ± 0.12 | 1.73 ± 0.11 | 1.564 ± 0.095 | 1.419 ± 0.086 | 1.304 ± 0.079 | 1.199 ± 0.073
x1 = 0.07263 | 0.716 ± 0.015 | 2.38 ± 0.15 | 2.12 ± 0.13 | 1.91 ± 0.12 | 1.72 ± 0.1 | 1.557 ± 0.095 | 1.423 ± 0.086 | 1.306 ± 0.079
x1 = 0.08417 | 0.756 ± 0.016 | 2.61 ± 0.16 | 2.32 ± 0.14 | 2.08 ± 0.13 | 1.87 ± 0.11 | 1.69 ± 0.1 | 1.542 ± 0.094 | 1.412 ± 0.086
x1 = 0.1028 | 0.848 ± 0.018 | 2.97 ± 0.18 | 2.65 ± 0.16 | 2.37 ± 0.14 | 2.13 ± 0.13 | 1.92 ± 0.12 | 1.75 ± 0.11 | 1.592 ± 0.097
x1 = 0.1216 | 0.904 ± 0.019 | 3.38 ± 0.21 | 3.01 ± 0.18 | 2.69 ± 0.16 | 2.42 ± 0.15 | 2.18 ± 0.13 | 1.96 ± 0.12 | 1.77 ± 0.11

CCCCCC(=O)[O-].C[NH+](C)Cc1ccccc1 + CN(C)C=O
viscosity [mPa·s]
Details | 293.15 K | 298.15 K | 303.15 K | 308.15 K | 313.15 K | 318.15 K | 323.15 K | 328.15 K
x1 = 0.005406 | 0.956 ± 0.058 | 0.916 ± 0.055 | 0.879 ± 0.053 | 0.847 ± 0.051 | 0.818 ± 0.049 | 0.792 ± 0.048 | 0.769 ± 0.046 | 0.748 ± 0.045
x1 = 0.008974 | 0.969 ± 0.059 | 0.927 ± 0.056 | 0.889 ± 0.054 | 0.855 ± 0.052 | 0.825 ± 0.05 | 0.798 ± 0.048 | 0.774 ± 0.047 | 0.752 ± 0.045
x1 = 0.01235 | 0.978 ± 0.059 | 0.934 ± 0.056 | 0.895 ± 0.054 | 0.861 ± 0.052 | 0.83 ± 0.05 | 0.803 ± 0.049 | 0.778 ± 0.047 | 0.755 ± 0.046
x1 = 0.01781 | 1.002 ± 0.061 | 0.955 ± 0.058 | 0.913 ± 0.055 | 0.877 ± 0.053 | 0.844 ± 0.051 | 0.815 ± 0.049 | 0.789 ± 0.048 | 0.765 ± 0.046
x1 = 0.01976 | 1 ± 0.06 | 0.954 ± 0.058 | 0.913 ± 0.055 | 0.877 ± 0.053 | 0.844 ± 0.051 | 0.816 ± 0.049 | 0.79 ± 0.048 | 0.766 ± 0.046
x2 = 0.9681 | 1.042 ± 0.063 | 0.99 ± 0.06 | 0.945 ± 0.057 | 0.905 ± 0.055 | 0.869 ± 0.053 | 0.837 ± 0.051 | 0.809 ± 0.049 | 0.784 ± 0.047
x2 = 0.9717 | 1.03 ± 0.062 | 0.98 ± 0.059 | 0.935 ± 0.057 | 0.896 ± 0.054 | 0.862 ± 0.052 | 0.831 ± 0.05 | 0.803 ± 0.049 | 0.778 ± 0.047
x2 = 0.9757 | 1.02 ± 0.062 | 0.971 ± 0.059 | 0.928 ± 0.056 | 0.89 ± 0.054 | 0.856 ± 0.052 | 0.826 ± 0.05 | 0.799 ± 0.048 | 0.774 ± 0.047

Cn1cc[n+](CCO)c1.O=S(=O)([O-])C(F)(F)C(F)(F)C(F)(F)C(F)(F)F + O
Details | electrical conductivity [S/m] | viscosity [mPa·s]
298.15 K, x1 = 0.02322 | 4.64 ± 0.93 | 2.48 ± 0.1
298.15 K, x1 = 0.02741 | 4.83 ± 0.97 | 2.81 ± 0.11
298.15 K, x1 = 0.05114 | – | 5.32 ± 0.22
298.15 K, x1 = 0.05966 | – | 6.3 ± 0.26
298.15 K, x1 = 0.09831 | 4.54 ± 0.91 | 11.5 ± 0.47
298.15 K, x1 = 0.1816 | 2.58 ± 0.52 | 27.4 ± 1.1
298.15 K, x1 = 0.6778 | 0.116 ± 0.023 | 256 ± 12
308.15 K, x1 = 0.04384 | – | 3.39 ± 0.14
308.15 K, x1 = 0.0644 | – | 5.13 ± 0.21
308.15 K, x1 = 0.06999 | – | 5.73 ± 0.23
308.15 K, x1 = 0.07565 | – | 6.11 ± 0.25
308.15 K, x1 = 0.08994 | – | 7.61 ± 0.31
308.15 K, x1 = 0.1303 | – | 11.95 ± 0.49
308.15 K, x1 = 0.1442 | – | 13.84 ± 0.57
308.15 K, x1 = 0.2068 | – | 21.6 ± 0.89
308.15 K, x1 = 0.3955 | – | 53.9 ± 2.2
318.15 K, x1 = 0.02322 | – | 1.601 ± 0.065
318.15 K, x1 = 0.03214 | – | 2.096 ± 0.085
318.15 K, x1 = 0.04384 | – | 2.67 ± 0.11
318.15 K, x1 = 0.05966 | – | 3.7 ± 0.15
318.15 K, x1 = 0.09831 | – | 6.23 ± 0.26
318.15 K, x1 = 0.1303 | – | 8.76 ± 0.36
318.15 K, x1 = 0.2329 | – | 17.91 ± 0.74

Reference: the CheMixHub ionic liquid set
